Measured values taken from a melting point compilation (Tetko et al.; mined from patent text by program, amines drawn as free bases though some values may be those of a salt).

| melting point [°C] | Structure (SMILES) |
| --- | --- |
| 124 | CCOC(=O)[C@](CC(=O)OC1CC(C)CCC1C(C)C)(NC(=O)OCc1ccccc1)C(N)=O (stereo not given in full) |
| 188 to 189 | CCCCC(=O)c1cc2oc(C(=O)O)cc2c(C)c1C |
| 39 to 41 | OCCNc1ccc(C2CCCCC2)cc1 |
| 66 to 77 | Cc1ccc(CN2CCC(OC(=O)c3ccc(C)cc3)CC2)cc1 |
| 103 to 106 | COc1ccc(CNc2c(-c3cc(Cl)ccc3O)c3cc(C(F)(F)F)ccc3[nH]c2=O)cc1 |
| 137 to 139 | CCCCN1CC(c2ccccc2)=C(O)C1=O |
| 291 | CC(C)OC(=O)c1n[nH]c2c(=O)[nH]c3cc(Cl)ccc3c(=O)c12 |
| 180 | Cc1ccc(S(=O)(=O)Nc2ccc3cccc(N4CCN(C)CC4)c3c2)cc1 |
| 148 to 149 | Cc1c(SCCCSCc2ccncc2)ccnc1CNc1ncncc1Cl |
| 202 to 204 | O=Cc1ccc(-c2ccc(O)cc2)c2sccc12 |
| 209 to 211 | CNC(=O)Nc1cc2c(c3c1OC(C)(C)C3)C(c1ccccc1)=NC(C)(C)C2 |
| 188 to 190 | Cc1cc2nncn2nc1-c1ccccc1 |
| 109 to 110 | Cc1nc2c(N)nc3ccccc3c2n1CCCCOCC#Cc1ccccc1 |
| 171 to 173 | COc1ccc2c(c1)[C@@]1(C(=O)O)CCCC[C@H]1CC2 (relative stereo) |
| 242 to 244 | O=Cc1cc2c(s1)CCc1cc(=O)n(-c3ccc(Cl)cc3)nc1-2 |
| 270 | O=C(NCCCCN1CCC(c2ccc3ccccc3c2)CC1)c1ccc(NC(=O)c2ccc(Cl)cc2)cc1 |
| 154 to 158 | Cc1ccc2c(c1)C1CN(CCCC(=O)c3ccc(F)cc3)CCC1N2 (stereo not given) |
| 184 to 185 | O=C(O)CC(Cc1c[nH]c2ccccc12)(C(=O)O)C(=O)O |
| 256 to 258 | COc1ccc(S(=O)(=O)N(Cc2cccnc2)c2c(C(=O)O)cnc3c2c(C)nn3C)cc1 |
| 175 | O=C1Cc2ccccc2SN1 |
| 129 to 130 | COc1cc(C(C)C)c(NC(=O)CN2CCN(CCCSc3nc4ccccc4o3)CC2)c(C(C)C)c1 |
| 129 to 131 | COc1cccc(-c2cn3c(ccc4ccccc43)n2)c1 |
| 260 to 263 | CCC(=O)c1c[nH]c2c(OC)cccc2c1=O |
| 101 to 102 | OCCCCCCC1CCC2C(C=CC3=CCCc4c3n2c2ccncc42)C1 (stereo not given) |

| melting point [°C] | Structure (SMILES) |
| --- | --- |
| 135 to 138 | N#Cc1cccc(NC(=O)C(=O)N2CCC(Cc3ccc(F)cc3)CC2)c1 |
| > 300 | Oc1c2ncnc(S)c2nn1-c1ccccc1 |
| 150 to 152 | Cc1ccc(-c2ccc([C@H](C)N3CC[C@](CC(C)(C)O)(c4ccccc4)OC3=O)cc2)nn1 |
| 82 to 83 | Clc1nn(-c2cccnc2)cc1NCC1CC1 |
| 59 to 61 | Cc1ccsc1C(=O)C[N+](=O)[O-] |
| 90 | COc1ccc(Cn2cnc3c(Cl)nc(F)nc32)cc1 |
| 150 to 152 | O=C(c1cc2ccc(N3CCCCC3)cc2o1)C12CC3CC(CC(C3)C1)C2 |
| 146 to 148 | Cc1ccnc(C)c1Cn1nnnc1-c1cccc(Cl)c1Cl |
| 95 | Cc1cccc(C)c1NC(=O)c1cc(CO)on1 |
| 80 to 82 | CN1C(=O)C(c2cccc(Br)c2)(c2cnn(CC(F)(F)F)c2)N=C1N (stereo not given) |
| 197 to 198 | O=C(c1ccc(-c2ccccc2)cc1)N1Cc2ccc(C(=O)C(Cl)(Cl)Cl)n2Cc2ccccc21 |
| 255 to 257 | COC(=O)c1ccc2c(c1)Sc1ccccc1NC2=O |
| 157 | COc1ccc(N2CCN(NC(=S)NCC(OC)OC)CC2)cc1 |
| 86.5 to 88 | N#CCCCCC(=NO)c1ccc(Br)cc1 |
| 154 to 156 | CC(=O)OC1CC2CCC3C4CCC(C(C)=O)C4(C)CC(=O)C3C2(C)CC1Br (stereo not given) |
| 94 to 97 | O=C1c2cccc(-c3ccc(C(F)(F)F)cc3)c2CC1Br (stereo not given) |
| 173 to 174 | CC(C)(C)OC(=O)NCc1ccc2cc(O)ccc2c1 |
| 237 | Cc1cc(C)nc(-n2nc(C)nc2N)n1 |
| 106 to 108 | CCCCSc1cc([N+](=O)[O-])cc(C(O)=NC)c1C(=O)O |
| 237 to 239 | CC(C)n1nc(-c2c(NC3CC3)nc(N)nc2-c2ccccc2)ccc1=O |
| 181 to 182 | ON=C1CCc2cc(Cl)ccc21 |
| 185 to 187 | CCNS(=O)(=O)CC(=O)C1=CNC(C)=C(C(=O)OC)C1c1cccc([N+](=O)[O-])c1 (stereo not given) |
| 124 to 126 | CS(=O)(=O)c1ccc(C(CC2CCCC2)C(=O)O)cc1Cl (stereo not given) |
| 110 to 112 | O=C1C(=O)c2ccccc2C2=C1SCC1(CCN(C(=O)c3cc4ccccc4s3)CC1)O2 |

| melting point [°C] | Structure (SMILES) |
| --- | --- |
| 248 to 249 | N#CCCNC(=O)c1n[nH]cc1NC(=O)c1cccc(C#N)c1 |
| 212 | CS(=O)(=O)c1ccc(-c2nn(Cc3ccc(Cl)cc3Cl)c(=O)cc2-c2ccc(F)cc2)cc1 |
| 175 | CN1CCCC1=NC(=O)Nc1ccc(Cl)c(C(F)(F)F)c1 |
| 152 to 154 | CCCN1C(=O)N2C(=NCC2c2ccccc2)c2c1ncn2C (stereo not given) |
| 284 to 286 | CN(C)C(=O)c1cn(-c2cc3c(=O)n(NS(C)(=O)=O)c(=O)[nH]c3cc2C(F)(F)F)cn1 |
| 155 to 159 | COc1cc(C(O)C(CO)[N+](=O)[O-])cc(OC)c1OC (stereo not given) |
| 203 to 205 | c1ccc(-c2ccc(-c3nc4c5ccccc5ccn4n3)cc2)cc1 |
| 120 to 121 | CC(=O)ON(C(=O)NN(C)C)C1c2ccccc2Oc2ccccc21 |
| 156 to 162 | CN1C(=O)CC[C@]2(C)c3ccc(Sc4nc5ccc(Cl)cc5s4)cc3CC[C@@H]12 |
| 99 to 100 | CCOC(C#N)NC(=O)c1ccc(COC)cc1 (stereo not given) |
| 117 to 119 | Cc1[nH]c2ccccc2c1CCC(=O)N1CCC(O)(Cc2ccccc2)CC1 |
| 281 | CC(C)(C)NS(=O)(=O)c1cnc(-c2cn(-c3nc(-c4ccc(C(F)(F)F)cc4)cc(C(F)(F)F)n3)cn2)s1 |
| 254 to 255 | CCn1c(=O)c2c(nc(/C=C/c3cc(OC)ccc3OC(=O)c3ccccc3)n2C)n(CC)c1=O |
| 172 to 174 | CC1(C)NC(=O)N(CC(CSc2ccc(-c3ccc(C(F)(F)F)cc3)cc2)N(O)C=O)C1=O (stereo not given) |
| 189 to 190 | CCc1ccc(-c2ccc(C(=O)Nc3ccc4cc(CN5CCCC5)cnc4c3C)cc2)cc1 |
| 44 to 46 | CCN1CCc2cc3ccccc3n2CC1 |
| 260 to 261 | Nc1c(-c2ccc(Cl)cc2)nc2c(Cl)cc(Cl)cc2c1C(=O)O |
| 155 to 157 | CN(C)C=CC(=O)c1cccc(NC(=O)C2CCC2)c1 |
| 97 to 98 | CCOC(=O)C=C(C)Oc1ccc(C23CC4CC(CC(C4)C2)C3)cc1 |
| 232 to 235 | Cc1nc2cc3c(cc2c(=O)[nH]1)C(N(C)c1ccc(C(=O)NC(CCc2nnnn2CC(=O)O)C(=O)O)c(F)c1)CC3 (mixture of isomers) |
| 203 to 205 | CSc1nn2c(N)cc(CN3CCN(C)CC3)nc2c1S(=O)(=O)c1ccccc1 |
| 268 | Nc1ncc(-c2noc(-c3cnn4c(C(F)(F)F)cc(-c5ccc(F)c(F)c5)nc34)n2)cn1 |
| 115 to 125 | COc1ccc(S(=O)(=O)N2C(=O)[C@@](c3ccccc3OC)(N3C[C@H](OC(N)=O)C[C@H]3C(=O)N(C)C)c3cc(Cl)ccc32)c(OC)c1 |
| 88 to 90 | COc1c(-c2noc3ccsc23)ccc2c1O2 |

| melting point [°C] | Structure (SMILES) |
| --- | --- |
| 168 to 170 | COc1ccc(C(=O)Nc2ccccc2)cc1NCc1cccc(O)c1 |
| 143 to 144 | Cc1cc2c(cc1[N+](=O)[O-])C(C)(C)CCC2(C)C |
| 173 to 175 | Nc1nc(Oc2ccccc2)c2ncn(CCC(CO)CO)c2n1 |
| 118 to 120 | CC(C)(C)OC(=O)NC(Cc1ccccc1)C(O)CNCC(O)C(Cc1ccc(OCC(=O)N2CCOCC2)cc1)NC(=O)OC(C)(C)C (stereo not given) |
| 228 to 230 | COc1ccc(CNc2ccnc(Cl)c2C(=O)O)cc1Cl |
| 109 to 110 | CC(C)Nc1ncnc2c1ncn2Cc1c(Cl)cccc1Cl |
| 82 to 84 | COc1cc2c(cc1C=O)OCC2 |
| 170 to 171 | COc1cccc(CC2(c3ccc4[nH]ccc4c3)CCNC2)c1 (stereo not given) |
| 145 to 147 | COc1ccc2c(C(=O)N(CC(=O)O)C(=O)N(C)C)cccc2c1C(F)(F)F |
| 86 to 87 | COC(=O)C[C@H](Cc1ccc(-c2ccccc2)cc1)NC(=O)OC(C)(C)C |
| 114 to 116 | CCC1C(=O)c2c(cc(OC)c(Cl)c2Cl)C1c1ccccc1 (stereo not given) |
| 199 to 200 | Cc1c2n(c3ccccc13)C(=O)C(C(O)c1ncc[nH]1)CC2 (stereo not given) |
| 148 | CC(=O)N(C(C)=O)c1ccc(Br)c([N+](=O)[O-])c1OCc1ccccc1 |
| 41 to 44 | CC(=O)OCc1cc(Cl)ccc1Sc1ccccc1CN(C)C |
| 214 to 216 | CC(=O)Nc1nnc2c3c(c(N4CCCCC4)nn12)CCCC3 |
| 147 to 148 | CCOC(=O)Cn1c(-c2ccc(C(F)(F)F)cc2)nc2cccnc21 |
| 155 to 156 | CCCCOc1ncc(C(C)=O)cc1-c1nn2c(CC)nc(CCC)c2c(=O)[nH]1 |
| > 250 | O=C(O)C(Cl)=Cc1cc(-n2c(=O)cc(C(F)(F)F)[nH]c2=O)ccc1Cl |
| 188 to 190 | NS(=O)(=O)c1cc(S(N)(=O)=O)c(C(Cl)=C(Cl)Cl)cc1NCc1ccccc1 |
| 122 to 123 | CCCCCNC(=O)[C@H](Cc1ccc(OCC(=O)O)c(-c2cc(O)no2)c1)NC(=O)[C@H](Cc1ccccc1)NC(=O)OC(C)(C)C |
| 95 to 100 | C=CC(=O)Oc1ccc(Cl)c2c(N(C)C)ncnc12 |
| 68 to 69 | CCOC(=O)CCCNc1cccc(/C=C/c2nc3ccccc3s2)c1 |
| 124 | Cc1coc(N(CCCCCCN)c2nc(C)co2)n1 |

| Structure (SMILES) | melting point [°C] |
| --- | --- |
| O=C(c1ccccc1F)c1cc(Br)ccc1NC(=O)C(F)(F)F | 132 |
| NC(=O)CN1CCN(C(=O)Cc2ccc(OC(=O)c3ccc([N+](=O)[O-])cc3)cc2)CC1 | 192 to 196 |
| N#Cc1ccc(N2CCCCO2)c2ccccc12 | 111 to 112 |
| COc1cccc2c1C(=O)N1CCC[C@H]1c1c(C(=O)OC(C)(C)C)ncn1-2 | 200 to 201 |
| CNC(=O)ON=C1SC(C)(C)N=C1C | 90 to 92 |
